According to patent publication US9150579B2, “Selective PI3K delta inhibitors” (Rhizen Pharmaceuticals SA, priority 2012, dated 2015):
Like-named read-outs stand apart in the source and are kept apart here.

Experiments:
[1] = Metabolic stability in rat liver microsomes; format: in vitro ADME; conditions: 1 μM test item, 60 minutes, NADPH
Method: (§1) Metabolic stability studies were conducted using mouse, rat, and human liver microsomes. The protocol for the studies with mouse, rat, and human liver microsomes (all from BD Gentest, USA) is provided below. In brief, 0.4 mg protein was preincubated with 2 mM NADPH (cofactor) in phosphate buffer (pH˜7.4) for 15 min at 37° C. and then added with 1 μM test item and incubated further for 60 minutes in triplicate. The reaction mixture was terminated with methanol containing an internal standard and centrifuged further to analyze the test item remaining in the supernatant by LC-MS/MS. The percent parent compound remaining was calculated in comparison with similar samples terminated at 0 minutes.

[2] = Metabolic stability in mouse liver microsomes; format: in vitro ADME; conditions: 1 μM test item, 60 minutes, NADPH
Method: as §1

[3] = Metabolic stability in human liver microsomes; format: in vitro ADME; conditions: 1 μM test item, 60 minutes, NADPH
Method: as §1

[4] = Oral pharmacokinetics in rats; format: in vivo
Method: The protocol for the pharmacokinetics studies in rat is provided below.
All animals were fasted overnight (12 hours) before dosing and continued till 4.0 hours after administration of test item. Test item formulations were prepared in 1% Tween 80 and 99% media (0.5% Methyl cellulose, 4000 cPs, pH 2.2). The blood samples (150 μl from each animal) were collected from the orbital sinus, and placed into a micro centrifuge tube containing disodium EDTA as an anticoagulant. Blood samples were centrifuged immediately with a speed of 1000 g for 10 min at 4° C. and separated plasma samples were frozen at below −80° C. and stored until analysis. The concentrations of test item in all formulation were analyzed by HPLC. The plasma concentrations of test item in all samples were analyzed by LC-MS/MS. Pharmacokinetic parameters viz. Cmax, AUC0-t, Tmax, and t1/2 were estimated by using WinNonlin software.

[5] = Oral pharmacokinetics in dogs; format: in vivo
[6] = target: PI3K γ (Homo sapiens (Human), UniProt P48736); experiment: Assay 1: Fluorescent (HTRF) determination of PI3K enzyme activity, gamma; format: biochemical
Method: (§2) The homogenous time resolved fluorescence (HTRF) assay allows detection of 3,4,5-triphosphate (PIP3) formed as a result of phosphorylation of phosphotidylinositol 4,5-biphosphate (PIP2) by PI3K isoforms such as α, β, γ or δ.
(§3) PI3K isoform activity for α, β, γ or δ was determined using a PI3K human HTRF™ Assay Kit (Millipore, Billerica, Mass.) with modifications. All incubations were carried out at room temperature. […] After the initial incubation, 5 μl/well of 400 μM ATP was added and incubated for an additional 30 minutes. Reaction was terminated by adding 5 μl/well stop solution (Millipore, Billerica, Mass.). Five microliters of detection mix (Millipore, Billerica, Mass.) were then added to each well and was incubated for 6-18 h in the dark.

[7] = target: PI3K delta (Homo sapiens (Human), UniProt O00329); experiment: Assay 1: Fluorescent (HTRF) determination of PI3K enzyme activity, delta; format: biochemical
Method: as §2
as §3, with “dark. HRTF ratio was measured on a microplate reader (BMG Labtech., Germany) at an excitation wavelength of 337 nm and emission wavelengths of 665 and 620 nm with an integration time of 400 μsec.” for “dark.”

[8] = target: PI3K α (Homo sapiens (Human), UniProt P42336); experiment: Assay 1: Fluorescent (HTRF) determination of PI3K enzyme activity, alpha; format: biochemical
Method: as §2, §3

[9] = target: PI3K β (Homo sapiens (Human), UniProt P42338); experiment: Assay 1: Fluorescent (HTRF) determination of PI3K enzyme activity, beta; format: biochemical
Method: as §2, §3

PI3K γ, sequence (P48736 whole entry, canonical isoform): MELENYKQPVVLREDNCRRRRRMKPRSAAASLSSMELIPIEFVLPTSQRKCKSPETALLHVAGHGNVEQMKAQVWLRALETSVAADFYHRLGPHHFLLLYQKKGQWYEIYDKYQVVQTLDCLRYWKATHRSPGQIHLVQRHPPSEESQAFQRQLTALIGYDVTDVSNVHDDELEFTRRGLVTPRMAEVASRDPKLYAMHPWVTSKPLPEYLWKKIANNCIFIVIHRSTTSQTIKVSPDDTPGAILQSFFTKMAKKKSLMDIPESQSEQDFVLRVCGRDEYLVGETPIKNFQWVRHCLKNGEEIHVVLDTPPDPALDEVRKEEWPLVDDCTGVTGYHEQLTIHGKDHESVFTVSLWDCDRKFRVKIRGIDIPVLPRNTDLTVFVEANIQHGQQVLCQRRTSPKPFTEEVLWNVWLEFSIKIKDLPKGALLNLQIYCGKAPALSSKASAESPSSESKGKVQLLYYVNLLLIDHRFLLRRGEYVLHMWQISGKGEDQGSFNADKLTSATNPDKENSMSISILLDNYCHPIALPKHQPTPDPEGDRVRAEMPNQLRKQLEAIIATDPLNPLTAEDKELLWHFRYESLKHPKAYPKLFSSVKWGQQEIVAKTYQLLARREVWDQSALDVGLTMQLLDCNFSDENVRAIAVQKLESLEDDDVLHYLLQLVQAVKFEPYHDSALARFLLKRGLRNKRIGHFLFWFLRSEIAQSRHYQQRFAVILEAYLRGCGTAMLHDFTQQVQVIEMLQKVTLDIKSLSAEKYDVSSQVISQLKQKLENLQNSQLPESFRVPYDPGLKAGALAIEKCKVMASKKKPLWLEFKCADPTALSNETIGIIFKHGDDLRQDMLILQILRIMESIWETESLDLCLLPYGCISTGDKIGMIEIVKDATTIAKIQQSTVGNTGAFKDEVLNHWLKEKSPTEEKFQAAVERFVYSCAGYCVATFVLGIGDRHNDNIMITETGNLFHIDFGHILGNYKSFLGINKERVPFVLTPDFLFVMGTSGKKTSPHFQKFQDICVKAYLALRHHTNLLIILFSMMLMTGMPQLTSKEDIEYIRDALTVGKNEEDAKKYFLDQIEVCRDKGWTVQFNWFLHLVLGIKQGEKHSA
PI3K α, sequence (P42336 whole entry): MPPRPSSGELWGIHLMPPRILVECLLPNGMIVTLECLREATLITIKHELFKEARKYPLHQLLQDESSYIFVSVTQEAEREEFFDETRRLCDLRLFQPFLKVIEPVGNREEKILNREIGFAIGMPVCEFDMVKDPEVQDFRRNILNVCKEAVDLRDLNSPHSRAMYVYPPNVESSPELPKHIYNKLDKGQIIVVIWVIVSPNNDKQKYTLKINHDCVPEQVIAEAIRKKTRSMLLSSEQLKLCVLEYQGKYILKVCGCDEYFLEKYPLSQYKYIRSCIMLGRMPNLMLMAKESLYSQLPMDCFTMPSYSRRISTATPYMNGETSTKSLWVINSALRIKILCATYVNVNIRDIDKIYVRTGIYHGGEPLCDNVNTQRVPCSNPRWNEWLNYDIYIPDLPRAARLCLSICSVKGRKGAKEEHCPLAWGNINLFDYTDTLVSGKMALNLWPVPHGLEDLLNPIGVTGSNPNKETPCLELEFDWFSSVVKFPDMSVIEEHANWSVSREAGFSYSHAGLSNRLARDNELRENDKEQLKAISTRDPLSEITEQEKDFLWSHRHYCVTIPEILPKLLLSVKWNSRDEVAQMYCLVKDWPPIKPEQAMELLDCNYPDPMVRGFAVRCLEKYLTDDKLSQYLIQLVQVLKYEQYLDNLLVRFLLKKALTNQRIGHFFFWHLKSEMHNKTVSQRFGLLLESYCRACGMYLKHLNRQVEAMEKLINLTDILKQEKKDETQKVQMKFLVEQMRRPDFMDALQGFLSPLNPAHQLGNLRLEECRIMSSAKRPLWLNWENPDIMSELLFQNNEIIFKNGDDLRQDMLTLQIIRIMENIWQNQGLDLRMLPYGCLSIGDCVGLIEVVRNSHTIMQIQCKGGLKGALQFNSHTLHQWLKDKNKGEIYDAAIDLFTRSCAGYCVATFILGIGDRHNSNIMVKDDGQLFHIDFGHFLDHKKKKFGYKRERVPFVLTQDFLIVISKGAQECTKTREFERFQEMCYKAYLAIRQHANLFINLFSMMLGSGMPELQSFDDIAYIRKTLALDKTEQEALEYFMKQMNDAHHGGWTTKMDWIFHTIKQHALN
PI3K α, sequence (P27986 whole entry partner): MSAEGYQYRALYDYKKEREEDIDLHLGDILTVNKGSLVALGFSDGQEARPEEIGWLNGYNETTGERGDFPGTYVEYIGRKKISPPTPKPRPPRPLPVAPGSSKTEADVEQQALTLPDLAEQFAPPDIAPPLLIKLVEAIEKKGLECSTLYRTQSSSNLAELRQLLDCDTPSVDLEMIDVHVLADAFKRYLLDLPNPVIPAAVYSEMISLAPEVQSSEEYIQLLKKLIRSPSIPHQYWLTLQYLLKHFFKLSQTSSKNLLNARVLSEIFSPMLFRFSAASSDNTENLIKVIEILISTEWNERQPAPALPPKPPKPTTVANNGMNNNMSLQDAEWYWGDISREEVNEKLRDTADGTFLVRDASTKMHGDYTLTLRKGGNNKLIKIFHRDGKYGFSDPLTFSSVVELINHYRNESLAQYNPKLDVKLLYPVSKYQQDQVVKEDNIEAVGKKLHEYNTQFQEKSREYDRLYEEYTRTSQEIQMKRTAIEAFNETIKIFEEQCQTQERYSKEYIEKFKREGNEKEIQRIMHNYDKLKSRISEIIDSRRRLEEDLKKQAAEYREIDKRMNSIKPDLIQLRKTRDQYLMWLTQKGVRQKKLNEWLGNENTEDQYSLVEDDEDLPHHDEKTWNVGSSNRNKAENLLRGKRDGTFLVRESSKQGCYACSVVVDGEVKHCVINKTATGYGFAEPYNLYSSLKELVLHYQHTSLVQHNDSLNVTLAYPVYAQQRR
PI3K delta, sequence (O00329 whole entry): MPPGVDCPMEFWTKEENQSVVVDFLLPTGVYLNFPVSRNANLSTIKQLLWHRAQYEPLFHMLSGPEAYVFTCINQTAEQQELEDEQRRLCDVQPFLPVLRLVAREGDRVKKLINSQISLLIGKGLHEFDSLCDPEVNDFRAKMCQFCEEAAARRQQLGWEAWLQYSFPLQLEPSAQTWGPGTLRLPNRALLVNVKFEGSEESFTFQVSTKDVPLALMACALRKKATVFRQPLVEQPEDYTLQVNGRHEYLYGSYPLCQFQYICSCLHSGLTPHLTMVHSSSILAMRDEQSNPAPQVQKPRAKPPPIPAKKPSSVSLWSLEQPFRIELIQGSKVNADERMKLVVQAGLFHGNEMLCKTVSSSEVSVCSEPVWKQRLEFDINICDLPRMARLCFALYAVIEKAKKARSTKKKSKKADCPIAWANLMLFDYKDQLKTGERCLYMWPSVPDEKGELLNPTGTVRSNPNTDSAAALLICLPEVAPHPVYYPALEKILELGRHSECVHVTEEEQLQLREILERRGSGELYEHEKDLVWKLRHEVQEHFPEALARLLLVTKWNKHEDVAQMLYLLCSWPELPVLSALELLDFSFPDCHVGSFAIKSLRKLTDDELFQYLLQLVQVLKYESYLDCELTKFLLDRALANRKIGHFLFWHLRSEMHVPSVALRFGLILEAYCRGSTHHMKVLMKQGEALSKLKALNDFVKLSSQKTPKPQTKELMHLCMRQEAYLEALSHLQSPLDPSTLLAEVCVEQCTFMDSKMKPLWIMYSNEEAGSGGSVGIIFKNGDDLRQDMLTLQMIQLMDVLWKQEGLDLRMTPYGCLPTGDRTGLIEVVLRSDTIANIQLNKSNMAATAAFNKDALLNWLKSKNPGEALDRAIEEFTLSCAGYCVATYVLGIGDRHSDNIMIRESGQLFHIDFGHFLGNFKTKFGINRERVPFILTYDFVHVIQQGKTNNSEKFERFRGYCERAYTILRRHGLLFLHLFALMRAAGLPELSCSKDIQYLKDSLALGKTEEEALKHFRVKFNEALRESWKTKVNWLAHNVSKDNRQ
PI3K delta, sequence (P27986 whole entry partner): as the sequence (P27986 whole entry partner) above
PI3K β, sequence (P42338 whole entry): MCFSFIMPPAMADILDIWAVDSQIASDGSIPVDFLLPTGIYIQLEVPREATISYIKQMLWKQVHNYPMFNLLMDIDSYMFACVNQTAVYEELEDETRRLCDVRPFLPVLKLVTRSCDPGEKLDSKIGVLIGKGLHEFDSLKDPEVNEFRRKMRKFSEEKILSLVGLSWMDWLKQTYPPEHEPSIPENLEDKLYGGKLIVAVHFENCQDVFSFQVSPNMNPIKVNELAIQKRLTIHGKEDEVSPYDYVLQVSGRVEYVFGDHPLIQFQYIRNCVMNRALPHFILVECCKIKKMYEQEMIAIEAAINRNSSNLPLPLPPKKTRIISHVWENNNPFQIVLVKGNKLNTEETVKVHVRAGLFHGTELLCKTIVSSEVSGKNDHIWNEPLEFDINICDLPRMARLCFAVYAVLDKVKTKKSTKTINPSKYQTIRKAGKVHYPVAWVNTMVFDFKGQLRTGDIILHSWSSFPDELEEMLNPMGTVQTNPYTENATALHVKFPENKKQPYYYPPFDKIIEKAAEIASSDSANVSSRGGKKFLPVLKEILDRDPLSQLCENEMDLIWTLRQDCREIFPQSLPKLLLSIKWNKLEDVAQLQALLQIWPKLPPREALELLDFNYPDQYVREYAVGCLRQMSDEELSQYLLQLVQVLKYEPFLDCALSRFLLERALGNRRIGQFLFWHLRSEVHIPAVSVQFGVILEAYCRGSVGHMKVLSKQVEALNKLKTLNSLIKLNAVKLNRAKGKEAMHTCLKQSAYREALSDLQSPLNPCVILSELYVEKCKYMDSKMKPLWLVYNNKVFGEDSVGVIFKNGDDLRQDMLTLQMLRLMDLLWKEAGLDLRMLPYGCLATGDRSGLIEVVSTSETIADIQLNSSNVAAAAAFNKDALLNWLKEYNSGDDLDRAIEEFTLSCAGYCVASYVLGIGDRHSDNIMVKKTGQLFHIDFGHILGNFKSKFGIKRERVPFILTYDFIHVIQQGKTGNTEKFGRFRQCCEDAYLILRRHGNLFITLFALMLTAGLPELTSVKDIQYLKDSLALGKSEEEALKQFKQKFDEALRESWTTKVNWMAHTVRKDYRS
PI3K β, sequence (P27986 whole entry partner): as the sequence (P27986 whole entry partner) above

Row | inhibition at 1 µM [6] [%] | IC50 [7] [µM] | inhibition at 1 µM [8] [%] | inhibition at 1 µM [9] [%] | IC50 ([7]; μM) [µM] | SMILES | Metabolic stability in liver microsomes, Rat (percent parent compound remaining) [1] [%] | Metabolic stability in liver microsomes, Mouse (percent parent compound remaining) [2] [%] | Metabolic stability in liver microsomes, Human (percent parent compound remaining) [3] [%] | Cmax relative to free base of compound B1 [4] | area under the curve (AUC) relative to free base of compound B1 [4] | Cmax relative to free base of compound B1 [5] | area under the curve (AUC) relative to free base of compound B1 [5]
1 |  |  |  |  |  | CC(C)Oc1ccc(-c2nn([C@H](C)c3oc4ccc(F)cc4c(=O)c3-c3cccc(F)c3)c3ncnc(N)c23)cc1F [Compound B2, (R)-2-(1-(4-amino-3-(3-fluoro-4-isopropoxyphenyl)-1H-pyrazolo[3,4-d]pyrimidin-1-yl)ethyl)-6-fluoro-3-(3-fluorophenyl)-4H-chromen-4-one] | 48.6 | 54.1 | 27.5 |  |  |  | 
2 |  |  |  |  |  | CC(C)Oc1ccc(-c2nn([C@@H](C)c3oc4ccc(F)cc4c(=O)c3-c3cccc(F)c3)c3ncnc(N)c23)cc1F.Cc1ccc(S(=O)(=O)O)cc1 [PTSA salt of compound B1, (S)-2-(1-(4-amino-3-(3-fluoro-4-isopropoxyphenyl)-1H-pyrazolo[3,4-d]pyrimidin-1-yl)ethyl)-6-fluoro-3-(3-fluorophenyl)-4H-chromen-4-one 4-methylbenzenesulfonate] |  |  |  | about twice | nearly three times | more than twice | about four times
3 | 55.9 | 0.0373 | 2.63 | 9.95 |  | CC(C)Oc1ccc(-c2nn(C(C)c3oc4ccccc4c(=O)c3-c3cccc(F)c3)c3ncnc(N)c23)cc1F (racemic) [Compound A, 2-(1-(4-amino-3-(3-fluoro-4-isopropoxyphenyl)-1H-pyrazolo[3,4-d]pyrimidin-1-yl)ethyl)-3-(3-fluorophenyl)-4H-chromen-4-one] | 43.1 | 32.6 | 38.4 |  |  |  | 
4 |  |  |  |  |  | CC(C)Oc1ccc(-c2nn(C(C)c3oc4ccc(F)cc4c(=O)c3-c3cccc(F)c3)c3ncnc(N)c23)cc1F (racemic) [Compound B, 2-(1-(4-amino-3-(3-fluoro-4-isopropoxyphenyl)-1H-pyrazolo[3,4-d]pyrimidin-1-yl)ethyl)-6-fluoro-3-(3-fluorophenyl)-4H-chromen-4-one] | 51.4 | 54.9 | 46.9 |  |  |  | 
5 | 66.3 |  | 0.95 | 38.7 | > 10 | CC(C)Oc1ccc(-c2nn([C@H](C)c3oc4ccccc4c(=O)c3-c3cccc(F)c3)c3ncnc(N)c23)cc1F [Compound A2, (R)-2-(1-(4-amino-3-(3-fluoro-4-isopropoxyphenyl)-1H-pyrazolo[3,4-d]pyrimidin-1-yl)ethyl)-3-(3-fluorophenyl)-4H-chromen-4-one] | 44.2 | 34.7 | 11.4 |  |  |  | 
